Read-outs that look alike come from different tables or passages of the source. Values belong to the compound of their own block, whether it stands above or below them.
Tests used:
[1] = cited from earlier work
[2] = cited from earlier work; remark: listed apart in the source
[3] = rats, 1 hour; cited from earlier work
[4] = Iodine vapor detection with iodine sensitive paper disc in vial lid (Example 4); conditions: acetate buffer; cyclodextrin 50 mM
Procedure: Solutions of these cyclodextrins were prepared in acetate buffer or propylene glycol, both containing molecular iodine as follows. Cyclodextrins were weighed and added to vials. Saturated solutions of molecular iodine (Alfa Aesar 14248 Lot 104Z003) were then prepared in either: (a) […] acetate buffer (pH 4.5); or (b) propylene glycol.
Aliquots of each solution of the different cyclodextrins were added to vials to a final cyclodextrin concentration of 50 mM. […] The screw-top lid of each vial was fitted with an iodine sensitive paper disc (Fluka #37215, Lot SZBF1310V) that fit tightly in the lid so the paper was exposed to the atmosphere in the vial which would allow the paper to react with molecular iodine that was in the vapor phase.
At time points of: one (1) hour; six (6) hours; and twenty-four (24) hours, the color of the indicator paper on the inside of the screw-top lids were examined and photographed.

[5] = Viscosity with Brookfield DV2T viscometer (Example 7); assay type: physicochemical; conditions: for viscosity: extrapolated to zero shear
Procedure: Viscosity was measured using a Brookfield DV2T viscometer which allowed for the precise control of the temperature at which the viscosity was measured. The Brookfield DV2T was programmed to measured viscosity at different shear rates by systematically ramping the spindle (CP-40 or CP-52) speed up and then down as shown in FIG. 4A for propylene glycol at 25° C.
The viscosity values were fitted to a curve and extrapolated to the zero shear value to arrive at a final estimate for viscosity.
One series of samples was prepared without molecular iodine and a second series was prepared that contained 800 ppm molecular iodine. The viscosity of these samples was measured as described above using an up-down rate ramp program. The results were fitted to an Ostwald model, i.e. stress versus shear rate curve fit, and the consistency constant was reported as the viscosity.

[6] = Potassium iodide starch paper coloration versus time, vapor pressure of molecular iodine (Example 5); conditions: cyclodextrin 50 mM; for reduction in vapor pressure of molecular iodine in the acetate buffer (ranking): 0.1M acetate buffer pH 4.5; for ability to reduce the vapor pressure of molecular iodine in an aqueous environment (conclusion): acetate buffer
Description: Alpha cyclodextrin (cat. number C4642, Sigma Life Sciences, Lot 2X SLBK4630V, CAS 10016-20-3), beta cyclodextrin (cat. number C4767, Sigma Life Sciences, Lot MKBV2085V, CAS 7585-39-9), gamma cyclodextrin (cat. number C4892, Sigma Life Sciences, Lot SLBL4156V, CAS 17465-86-0), methyl beta cyclodextri, (cat. number C4555, Sigma Life Sciences, Lot WXBC0745V, CAS 128446-36-6) and 2-hydroxypropyl-beta-cyclodextrin (cat. number H107, Sigma Life Sciences, Lot WXBC0083V, CAS 128446-35-5) were weighed into vials.
Aliquots of saturated molecular iodine in either propylene glycol or 0.1M acetate buffer (pH 4.5) were added to the vials to yield a final cyclodextrin concentration of 50 mM. The samples were lightly vortexed to dissolve the cyclodextrins. Control vials were prepared consisting of saturated iodine in either propylene glycol or 0.1M acetate buffer pH 4.5.
Analytical potassium iodide starch paper (Fluka #37215, Lot SZBF1310V) was cut into circle and placed inside the screw-top lid of the vials in a manner that held the paper in place once the lid was screwed onto the vial.
Provided in FIGS. 2A-2L are pictures of the starch paper taken at different time points to document the color of the starch paper versus time of exposure to the atmosphere inside of the vial. The operating assumption was that the color of the starch paper would be proportional to the time of exposure to the concentration of molecular iodine in the atmosphere inside of the vial.
The concentration of molecular iodine in the atmosphere inside of the vial is proportional to the vapor pressure of dissolved molecular iodine in the liquid phase.

Compound: II [Molecular iodine, molecular iodine]
maximum iodine that can build up in a closed container ([1]; 25° C., standard atmospheric pressure): ≤ 394 ppm
vapor pressure ([1]; 25° C.): 0.3 mm
vapor pressure ([1]; 38.7° C.): 1 mm
permissible exposure limit ([2]; NIOSH, OSHA): 0.1 ppm
concentration with severe eye irritation ([2]; after 2 minutes): 1.63 ppm
concentration at which humans can work undisturbed ([2]; iodine vapor, inhalation): 0.1 ppm
concentration at which humans work with difficulty ([2]; iodine vapor, inhalation): 0.15-0.2 ppm
concentration that humans cannot tolerate ([2]; iodine vapor, inhalation): ≥ 0.3 ppm
level at which odor is detected ([2]; iodine vapor): about 0.9 ppm
lowest lethal atmospheric concentration [3]: 80 ppm

Compound: OC[C@H]1O[C@@H]2O[C@H]3[C@H](O)[C@@H](O)[C@@H](O[C@H]4[C@H](O)[C@@H](O)[C@@H](O[C@H]5[C@H](O)[C@@H](O)[C@@H](O[C@H]6[C@H](O)[C@@H](O)[C@@H](O[C@H]7[C@H](O)[C@@H](O)[C@@H](O[C@H]8[C@H](O)[C@@H](O)[C@@H](O[C@H]9[C@H](O)[C@@H](O)[C@@H](O[C@H]1[C@H](O)[C@H]2O)O[C@@H]9CO)O[C@@H]8CO)O[C@@H]7CO)O[C@@H]6CO)O[C@@H]5CO)O[C@@H]4CO)O[C@@H]3CO [gamma cyclodextrin, γ-cyclodextrin]
color of iodine indicator paper / iodine vapor at 6 hours [4]: clearly detected
color of iodine indicator paper / iodine vapor at 24 hours [4]: deeply stained

Compound: hydroxypropyl-β-cyclodextrin [hyroxypropyl-β-cyclodextrin]
color of iodine indicator paper / iodine vapor at 24 hours [4]: clearly detected
effect on vapor pressure of molecular iodine in an aqueous environment [4]: reduces the vapor pressure of molecular iodine
reduction in vapor pressure of molecular iodine in the acetate buffer (ranking) [6]: greatest reduction in vapor pressure
ability to reduce the vapor pressure of molecular iodine in an aqueous environment (conclusion) [6]: most effective

Compound: methyl-β-cyclodextrin
effect on vapor pressure of molecular iodine in an aqueous environment [4]: reduces the vapor pressure of molecular iodine
reduction in vapor pressure of molecular iodine in the acetate buffer (ranking) [6]: greatest reduction in vapor pressure
ability to reduce the vapor pressure of molecular iodine in an aqueous environment (conclusion) [6]: most effective

Continued, values first:

viscosity ([5]; 25° C.): 59 cP
viscosity ([5]; 33° C.): 95 cP
flow behaviour ([5]; viscosity versus shear): behaves like a Newtonian fluid
Compound: CC(O)CO (stereo not drawn) [propylene glycol]

color of iodine indicator paper / iodine vapor at 6 hours [4]: clearly detected
color of iodine indicator paper / iodine vapor at 24 hours [4]: deeply stained
Compound: OC[C@H]1O[C@@H]2O[C@H]3[C@H](O)[C@@H](O)[C@@H](O[C@H]4[C@H](O)[C@@H](O)[C@@H](O[C@H]5[C@H](O)[C@@H](O)[C@@H](O[C@H]6[C@H](O)[C@@H](O)[C@@H](O[C@H]7[C@H](O)[C@@H](O)[C@@H](O[C@H]8[C@H](O)[C@@H](O)[C@@H](O[C@H]1[C@H](O)[C@H]2O)O[C@@H]8CO)O[C@@H]7CO)O[C@@H]6CO)O[C@@H]5CO)O[C@@H]4CO)O[C@@H]3CO [β-cyclodextrin]

From US11596648B2, “Emollient topical disinfectants” (priority 2016, dated 2023)
